SMILES strings stand for the structures.

This assay concerns the target T1, rat NaPi-2b (Rattus norvegicus, UniProt Q9JJ09).
T1 construct: expressed in transfected cells; host or cells: Xenopus oocytes injected with cRNA
T1 sequence (Q9JJ09 1-695): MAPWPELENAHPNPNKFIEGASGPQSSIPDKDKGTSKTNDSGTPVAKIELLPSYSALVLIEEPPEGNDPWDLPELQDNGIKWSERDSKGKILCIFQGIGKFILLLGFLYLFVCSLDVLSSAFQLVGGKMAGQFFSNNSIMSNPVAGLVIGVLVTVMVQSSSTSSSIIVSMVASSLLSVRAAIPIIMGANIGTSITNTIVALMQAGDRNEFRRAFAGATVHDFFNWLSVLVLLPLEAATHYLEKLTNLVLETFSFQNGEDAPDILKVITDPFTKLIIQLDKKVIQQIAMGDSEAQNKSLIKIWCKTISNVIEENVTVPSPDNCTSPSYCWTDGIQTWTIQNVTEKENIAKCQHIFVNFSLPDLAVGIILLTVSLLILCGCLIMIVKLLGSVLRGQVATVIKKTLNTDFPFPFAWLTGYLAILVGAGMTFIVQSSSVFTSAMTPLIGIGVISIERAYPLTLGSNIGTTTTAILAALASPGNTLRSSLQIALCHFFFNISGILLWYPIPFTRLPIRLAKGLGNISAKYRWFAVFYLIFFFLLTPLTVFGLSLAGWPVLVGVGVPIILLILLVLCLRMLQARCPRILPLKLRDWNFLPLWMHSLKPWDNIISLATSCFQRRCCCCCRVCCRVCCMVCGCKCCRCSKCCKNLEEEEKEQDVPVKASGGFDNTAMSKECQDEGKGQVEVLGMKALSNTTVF
The experiment in a line: Sodium-dependent phosphate uptake of Xenopus oocytes which expressed NaPi-2b (32P). It is filed as cell-based. The settings on record: Xenopus oocytes expressing rat NaPi-2b, 32P radioactive phosphorus; read-out: IC50 (phosphate uptake inhibitory activity). The gist of the method:
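Rat NaPi-2b cloned from small-intestine cDNA; cRNA injected into Xenopus oocytes, expression for 2 days. Phosphate uptake inhibition measured with 32P; percent inhibition at 300 μM and 100 μM read from the same inhibition curve.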

The term IC50 denotes the concentration at which inhibition is half-maximal. In the case of `COc1ccc(C(=O)Nc2ccc(Br)cc2C(=O)NNCc2ccc(C)cc2)cc1OC` [Compound 367, N-{4-Bromo-2-[N′-(4-methyl-benzyl)-hydrazinocarbonyl]-phenyl}-3,4-dimethoxy-benzamide], the IC50 is 6.88 µM.

Take `O=C(Nc1ccc(Cl)cc1C(=O)N/N=C/c1cccc(F)c1)c1cccc(CN2CCC(N3CCCCC3)CC2)c1` [Compound 368, 3-[1,4′]Bipiperidinyl-1′-ylmethyl-N-[4-chloro-2-(3-fluoro-benzylidene-hydrazinocarbonyl)-phenyl]-benzamide]: the IC50 was determined as 1.37 µM.

On to `O=C(Nc1ccc(Cl)cc1C(=O)N/N=C/c1ccc(F)cc1)c1cccc(CN2CCC(N3CCCCC3)CC2)c1` [Compound 369, 3-[1,4′]Bipiperidinyl-1′-ylmethyl-N-[4-chloro-2-(4-fluoro-benzylidene-hydrazinocarbonyl)-phenyl]-benzamide], for which the IC50 is 1.45 µM.

As for `Cc1cccc(/C=N/NC(=O)c2cc(Cl)ccc2NC(=O)c2cccc(CN3CCC(N4CCCCC4)CC3)c2)c1` [Compound 370, 3-[1,4′]Bipiperidinyl-1′-ylmethyl-N-[4-chloro-2-(3-methyl-benzylidene-hydrazinocarbonyl)-phenyl]-benzamide], the IC50 came to 1.86 µM.

In the case of `Cc1ccc(/C=N/NC(=O)c2cc(Cl)ccc2NC(=O)c2cccc(CN3CCC(N4CCCCC4)CC3)c2)cc1` [Compound 371, 3-[1,4′]Bipiperidinyl-1′-ylmethyl-N-[4-chloro-2-(4-methyl-benzylidene-hydrazinocarbonyl)-phenyl]-benzamide], the IC50 was determined as 2.54 µM.

Turning to `O=C(Nc1ccc(Cl)cc1C(=O)N/N=C/c1ccc(Cl)c(C(F)(F)F)c1)c1cccc(CN2CCC(N3CCCCC3)CC2)c1` [Compound 373, 3-[1,4′]Bipiperidinyl-1′-ylmethyl-N-[4-chloro-2-(4-chloro-3-trifluoromethyl-benzylidene-hydrazinocarbonyl)-phenyl]-benzamide], the IC50 turned out to be 1.68 µM.

For the compound `COc1cccc(/C=N/NC(=O)c2cc(Cl)ccc2NC(=O)c2cccc(CN3CCC(N4CCCCC4)CC3)c2)c1` [Compound 374, 3-[1,4′]Bipiperidinyl-1′-ylmethyl-N-[4-chloro-2-(3-methoxy-benzylidene-hydrazinocarbonyl)-phenyl]-benzamide], the IC50 was 9.25 µM.

On to `COc1ccc(/C=N/NC(=O)c2cc(Cl)ccc2NC(=O)c2cccc(CN3CCC(N4CCCCC4)CC3)c2)cc1` [Compound 375, 3-[1,4′]Bipiperidinyl-1′-ylmethyl-N-[4-chloro-2-(4-methoxy-benzylidene-hydrazinocarbonyl)-phenyl]-benzamide], for which the IC50 was found to be 24.7 µM.

`O=C(Nc1ccc(Cl)cc1C(=O)N/N=C/c1cccc(O)c1)c1cccc(CN2CCC(N3CCCCC3)CC2)c1` [Compound 376, 3-[1,4′]Bipiperidinyl-1′-ylmethyl-N-[4-chloro-2-(3-hydroxy-benzylidene-hydrazinocarbonyl)-phenyl]-benzamide]: the IC50 amounted to 21 µM.

As to `O=C(Nc1ccc(Cl)cc1C(=O)N/N=C/c1ccc(O)cc1)c1cccc(CN2CCC(N3CCCCC3)CC2)c1` [Compound 377, 3-[1,4′]Bipiperidinyl-1′-ylmethyl-N-[4-chloro-2-(4-hydroxy-benzylidene-hydrazinocarbonyl)-phenyl]-benzamide], the IC50 was 9.65 µM.

On to `COc1cccc(CNNC(=O)c2cc(Br)ccc2NC(=O)c2ccc(CN3CCC(N4CCCCC4)CC3)cc2)c1` [Compound 378, 4-[1,4′]Bipiperidinyl-1′-ylmethyl-N-{4-bromo-2-[N′-(3-methoxy-benzyl)-hydrazinocarbonyl]-phenyl}-benzamide], for which the IC50 was 4.35 µM.

With `CCN(CC)CCN(C)Cc1cccc(C(=O)Nc2ccc(Cl)cc2C(=O)N/N=C/c2cccc(F)c2)c1` [Compound 379, N-[4-Chloro-2-(3-fluoro-benzylidene-hydrazinocarbonyl)-phenyl]-3-{[(2-diethylamino-ethyl)-methyl-amino]-methyl}-benzamide], the IC50 is 0.97 µM.

On to `CCN(CC)CCN(C)Cc1cccc(C(=O)Nc2ccc(Cl)cc2C(=O)N/N=C/c2ccc(F)cc2)c1` [Compound 380, N-[4-Chloro-2-(4-fluoro-benzylidene-hydrazinocarbonyl)-phenyl]-3-{[(2-diethylamino-ethyl)-methyl-amino]-methyl}-benzamide], for which the 50% inhibitory concentration (IC50) was determined as 0.35 µM.

In the case of `CCN(CC)CCN(C)Cc1cccc(C(=O)Nc2ccc(Cl)cc2C(=O)N/N=C/c2cccc(C)c2)c1` [Compound 381, N-[4-Chloro-2-(3-methyl-benzylidene-hydrazinocarbonyl)-phenyl]-3-{[(2-diethylamino-ethyl)-methyl-amino]-methyl}-benzamide], the IC50 was 1 µM.

Turning to `CCN(CC)CCN(C)Cc1cccc(C(=O)Nc2ccc(Cl)cc2C(=O)N/N=C/c2ccc(C)cc2)c1` [Compound 382, N-[4-Chloro-2-(4-methyl-benzylidene-hydrazinocarbonyl)-phenyl]-3-{[(2-diethylamino-ethyl)-methyl-amino]-methyl}-benzamide], the IC50 came to 1.04 µM.

Consider `CCN(CC)CCN(C)Cc1cccc(C(=O)Nc2ccc(Cl)cc2C(=O)N/N=C/c2ccc(C)c(C)c2)c1` [Compound 383, N-[4-Chloro-2-(3,4-dimethyl-benzylidene-hydrazinocarbonyl)-phenyl]-3-{[(2-diethylamino-ethyl)-methyl-amino]-methyl}-benzamide], for which the IC50 is 1.98 µM.

For `CCN(CC)CCN(C)Cc1cccc(C(=O)Nc2ccc(Cl)cc2C(=O)N/N=C/c2ccc(Cl)c(C(F)(F)F)c2)c1` [Compound 384, N-[4-Chloro-2-(4-chloro-3-trifluoromethyl-benzylidene-hydrazinocarbonyl)-phenyl]-3-{[(2-diethylamino-ethyl)-methyl-amino]-methyl}-benzamide], the IC50 amounted to 0.25 µM.

Consider `CCN(CC)CCN(C)Cc1cccc(C(=O)Nc2ccc(Cl)cc2C(=O)N/N=C/c2cccc(OC)c2)c1` [Compound 385, N-[4-Chloro-2-(3-methoxy-benzylidene-hydrazinocarbonyl)-phenyl]-3-{[(2-diethylamino-ethyl)-methyl-amino]-methyl}-benzamide], for which the IC50 turned out to be 0.31 µM.

With `CCN(CC)CCN(C)Cc1cccc(C(=O)Nc2ccc(Cl)cc2C(=O)N/N=C/c2ccc(OC)cc2)c1` [Compound 386, N-[4-Chloro-2-(4-methoxy-benzylidene-hydrazinocarbonyl)-phenyl]-3-{[(2-diethylamino-ethyl)-methyl-amino]-methyl}-benzamide], the IC50 is less than 3 µM.

`CCN(CC)CCN(C)Cc1cccc(C(=O)Nc2ccc(Cl)cc2C(=O)N/N=C/c2cccc(O)c2)c1` [Compound 387, N-[4-Chloro-2-(3-hydroxy-benzylidene-hydrazinocarbonyl)-phenyl]-3-{[(2-diethylamino-ethyl)-methyl-amino]-methyl}-benzamide]: the IC50 stood at 6.45 µM.

On to `CCN(CC)CCN(C)Cc1cccc(C(=O)Nc2ccc(Cl)cc2C(=O)N/N=C/c2ccc(O)cc2)c1` [Compound 388, N-[4-Chloro-2-(4-hydroxy-benzylidene-hydrazinocarbonyl)-phenyl]-3-{[(2-diethylamino-ethyl)-methyl-amino]-methyl}-benzamide], for which the IC50 is 19.7 µM.

For the compound `O=C(Nc1ccc(Cl)cc1C(=O)N/N=C/c1cccc(F)c1)c1cccc(CSc2nc[nH]n2)c1` [Compound 389, N-[4-Chloro-2-(3-fluoro-benzylidene-hydrazinocarbonyl)-phenyl]-3-(1H-[1,2,4]triazol-3-ylsulfanylmethyl)-benzamide], the IC50 was 1.09 µM.

Consider `O=C(Nc1ccc(Cl)cc1C(=O)N/N=C/c1ccc(F)cc1)c1cccc(CSc2nc[nH]n2)c1` [Compound 390, N-[4-Chloro-2-(4-fluoro-benzylidene-hydrazinocarbonyl)-phenyl]-3-(1H-[1,2,4]triazol-3-ylsulfanylmethyl)-benzamide], for which the IC50 was found to be 0.45 µM.

`Cc1cccc(/C=N/NC(=O)c2cc(Cl)ccc2NC(=O)c2cccc(CSc3nc[nH]n3)c2)c1` [Compound 391, N-[4-Chloro-2-(3-methyl-benzylidene-hydrazinocarbonyl)-phenyl]-3-(1H-[1,2,4]triazol-3-ylsulfanylmethyl)-benzamide]: the IC50 is 1.02 µM.

Take `Cc1ccc(/C=N/NC(=O)c2cc(Cl)ccc2NC(=O)c2cccc(CSc3nc[nH]n3)c2)cc1` [Compound 392, N-[4-Chloro-2-(4-methyl-benzylidene-hydrazinocarbonyl)-phenyl]-3-(1H-[1,2,4]triazol-3-ylsulfanylmethyl)-benzamide]: the IC50 was 1.42 µM.

Consider `O=C(Nc1ccc(Cl)cc1C(=O)N/N=C/c1ccc(Cl)c(C(F)(F)F)c1)c1cccc(CSc2nc[nH]n2)c1` [Compound 393, N-[4-Chloro-2-(4-chloro-3-trifluoromethyl-benzylidene-hydrazinocarbonyl)-phenyl]-3-(1H-[1,2,4]triazol-3-ylsulfanylmethyl)-benzamide], for which the IC50 worked out at 0.52 µM.

The record behind these values is patent publication US8134015B2, “Compound inhibiting in vivo phosphorous transport and medicine containing the same” (Kyowa Hakko Kirin Co., Ltd., priority 2003, dated 2012).
